Experimental data reported in ChEMBL document CHEMBL4421734, “Means and methods for treatment of early-onset parkinson''s disease” (2016).
Active and inactive are the calls of the source. The calls are words filed in the database; no cut-off is given here.

Legend:
[1] = target: Fatty acid synthase (Mus musculus) (UniProt P19096); experiment: Inhibition of FASN in PINK1 (-/-) MEF assessed as rescue of mitochondrial dysfunction by measuring ATP levels by luminometry; assay type: cell-based
[2] = target: 3-oxoacyl-[acyl-carrier-protein] reductase (Drosophila melanogaster) (UniProt B7Z001); experiment: Inhibition of FASN in one day old PINK1 mutant containing Drosophila melanogaster assessed as rescue of defective flight at 100 to 300 uM dosed with food incubated for 72 hrs; assay type: organism-based
Sequence of 3-oxoacyl-[acyl-carrier-protein] reductase (Drosophila melanogaster) (B7Z001 as listed by the source): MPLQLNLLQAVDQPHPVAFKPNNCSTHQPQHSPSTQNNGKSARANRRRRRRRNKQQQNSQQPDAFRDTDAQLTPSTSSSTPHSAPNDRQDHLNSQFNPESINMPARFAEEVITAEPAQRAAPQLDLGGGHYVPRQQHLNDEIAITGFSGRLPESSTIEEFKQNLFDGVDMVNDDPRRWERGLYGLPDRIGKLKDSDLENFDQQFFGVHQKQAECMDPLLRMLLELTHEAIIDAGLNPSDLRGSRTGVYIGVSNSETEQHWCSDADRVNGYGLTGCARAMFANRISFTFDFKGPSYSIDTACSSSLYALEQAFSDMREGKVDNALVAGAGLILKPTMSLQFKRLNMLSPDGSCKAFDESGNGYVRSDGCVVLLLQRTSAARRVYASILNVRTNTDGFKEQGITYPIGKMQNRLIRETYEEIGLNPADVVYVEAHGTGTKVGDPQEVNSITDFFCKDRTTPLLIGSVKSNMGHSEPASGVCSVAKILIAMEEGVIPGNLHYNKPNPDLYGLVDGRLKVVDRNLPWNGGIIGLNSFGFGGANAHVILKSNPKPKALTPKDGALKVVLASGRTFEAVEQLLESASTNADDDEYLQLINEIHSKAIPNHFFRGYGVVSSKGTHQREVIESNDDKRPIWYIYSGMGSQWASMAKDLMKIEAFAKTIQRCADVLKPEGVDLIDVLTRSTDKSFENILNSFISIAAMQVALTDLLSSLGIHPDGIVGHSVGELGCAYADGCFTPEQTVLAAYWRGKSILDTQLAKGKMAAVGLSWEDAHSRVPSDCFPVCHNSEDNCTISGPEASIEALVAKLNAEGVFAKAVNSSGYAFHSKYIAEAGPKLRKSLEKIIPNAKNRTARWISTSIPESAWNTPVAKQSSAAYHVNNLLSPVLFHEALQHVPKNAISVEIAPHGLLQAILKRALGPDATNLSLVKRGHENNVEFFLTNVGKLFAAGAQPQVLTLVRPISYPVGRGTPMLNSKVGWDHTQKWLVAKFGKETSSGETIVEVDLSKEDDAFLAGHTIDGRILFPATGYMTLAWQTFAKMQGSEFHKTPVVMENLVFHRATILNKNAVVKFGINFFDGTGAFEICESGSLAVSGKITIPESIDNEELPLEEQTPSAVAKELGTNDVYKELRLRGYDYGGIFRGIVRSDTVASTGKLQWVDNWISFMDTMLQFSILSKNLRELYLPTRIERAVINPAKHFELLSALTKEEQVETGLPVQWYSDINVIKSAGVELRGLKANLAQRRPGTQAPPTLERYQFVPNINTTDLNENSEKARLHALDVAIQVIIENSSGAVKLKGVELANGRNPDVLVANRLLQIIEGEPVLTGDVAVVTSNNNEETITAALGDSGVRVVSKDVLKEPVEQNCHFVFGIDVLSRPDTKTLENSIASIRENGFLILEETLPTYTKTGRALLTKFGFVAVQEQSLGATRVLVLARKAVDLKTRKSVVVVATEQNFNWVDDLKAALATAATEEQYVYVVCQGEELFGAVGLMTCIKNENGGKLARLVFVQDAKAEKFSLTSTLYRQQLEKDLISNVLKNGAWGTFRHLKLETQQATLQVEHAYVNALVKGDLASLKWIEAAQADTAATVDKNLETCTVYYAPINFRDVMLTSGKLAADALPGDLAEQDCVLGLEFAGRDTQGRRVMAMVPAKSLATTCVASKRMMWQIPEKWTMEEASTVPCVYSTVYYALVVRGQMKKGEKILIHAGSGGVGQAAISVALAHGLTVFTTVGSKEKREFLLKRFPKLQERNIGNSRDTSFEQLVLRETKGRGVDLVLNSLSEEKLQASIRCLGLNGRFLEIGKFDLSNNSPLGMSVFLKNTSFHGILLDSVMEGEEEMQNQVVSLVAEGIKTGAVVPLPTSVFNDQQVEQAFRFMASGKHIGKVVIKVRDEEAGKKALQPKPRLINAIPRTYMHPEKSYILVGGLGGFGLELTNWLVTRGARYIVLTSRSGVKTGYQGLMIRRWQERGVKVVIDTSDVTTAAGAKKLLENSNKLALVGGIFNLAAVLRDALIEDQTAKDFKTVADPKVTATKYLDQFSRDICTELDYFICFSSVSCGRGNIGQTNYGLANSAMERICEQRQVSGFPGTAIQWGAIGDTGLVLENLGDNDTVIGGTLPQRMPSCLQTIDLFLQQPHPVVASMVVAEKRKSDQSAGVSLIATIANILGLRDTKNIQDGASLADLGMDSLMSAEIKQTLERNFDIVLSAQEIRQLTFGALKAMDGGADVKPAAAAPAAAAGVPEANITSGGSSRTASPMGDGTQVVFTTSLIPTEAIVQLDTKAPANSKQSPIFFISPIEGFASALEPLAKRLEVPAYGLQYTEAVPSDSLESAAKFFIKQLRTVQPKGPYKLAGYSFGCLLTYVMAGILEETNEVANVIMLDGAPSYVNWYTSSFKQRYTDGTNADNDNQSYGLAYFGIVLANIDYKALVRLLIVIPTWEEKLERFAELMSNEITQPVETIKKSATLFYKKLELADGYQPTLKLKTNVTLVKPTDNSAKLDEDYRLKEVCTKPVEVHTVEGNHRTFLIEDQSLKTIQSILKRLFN

[3] = target: 3-oxoacyl-[acyl-carrier-protein] reductase (Drosophila melanogaster) (UniProt B7Z001); experiment: Inhibition of FASN in one day old PINK1 mutant containing Drosophila melanogaster assessed as rescue of defective flight at 0.1 to 300 uM dosed with food incubated for 72 hrs; assay type: organism-based

Sequence of Fatty acid synthase (Mus musculus) (P19096 whole entry): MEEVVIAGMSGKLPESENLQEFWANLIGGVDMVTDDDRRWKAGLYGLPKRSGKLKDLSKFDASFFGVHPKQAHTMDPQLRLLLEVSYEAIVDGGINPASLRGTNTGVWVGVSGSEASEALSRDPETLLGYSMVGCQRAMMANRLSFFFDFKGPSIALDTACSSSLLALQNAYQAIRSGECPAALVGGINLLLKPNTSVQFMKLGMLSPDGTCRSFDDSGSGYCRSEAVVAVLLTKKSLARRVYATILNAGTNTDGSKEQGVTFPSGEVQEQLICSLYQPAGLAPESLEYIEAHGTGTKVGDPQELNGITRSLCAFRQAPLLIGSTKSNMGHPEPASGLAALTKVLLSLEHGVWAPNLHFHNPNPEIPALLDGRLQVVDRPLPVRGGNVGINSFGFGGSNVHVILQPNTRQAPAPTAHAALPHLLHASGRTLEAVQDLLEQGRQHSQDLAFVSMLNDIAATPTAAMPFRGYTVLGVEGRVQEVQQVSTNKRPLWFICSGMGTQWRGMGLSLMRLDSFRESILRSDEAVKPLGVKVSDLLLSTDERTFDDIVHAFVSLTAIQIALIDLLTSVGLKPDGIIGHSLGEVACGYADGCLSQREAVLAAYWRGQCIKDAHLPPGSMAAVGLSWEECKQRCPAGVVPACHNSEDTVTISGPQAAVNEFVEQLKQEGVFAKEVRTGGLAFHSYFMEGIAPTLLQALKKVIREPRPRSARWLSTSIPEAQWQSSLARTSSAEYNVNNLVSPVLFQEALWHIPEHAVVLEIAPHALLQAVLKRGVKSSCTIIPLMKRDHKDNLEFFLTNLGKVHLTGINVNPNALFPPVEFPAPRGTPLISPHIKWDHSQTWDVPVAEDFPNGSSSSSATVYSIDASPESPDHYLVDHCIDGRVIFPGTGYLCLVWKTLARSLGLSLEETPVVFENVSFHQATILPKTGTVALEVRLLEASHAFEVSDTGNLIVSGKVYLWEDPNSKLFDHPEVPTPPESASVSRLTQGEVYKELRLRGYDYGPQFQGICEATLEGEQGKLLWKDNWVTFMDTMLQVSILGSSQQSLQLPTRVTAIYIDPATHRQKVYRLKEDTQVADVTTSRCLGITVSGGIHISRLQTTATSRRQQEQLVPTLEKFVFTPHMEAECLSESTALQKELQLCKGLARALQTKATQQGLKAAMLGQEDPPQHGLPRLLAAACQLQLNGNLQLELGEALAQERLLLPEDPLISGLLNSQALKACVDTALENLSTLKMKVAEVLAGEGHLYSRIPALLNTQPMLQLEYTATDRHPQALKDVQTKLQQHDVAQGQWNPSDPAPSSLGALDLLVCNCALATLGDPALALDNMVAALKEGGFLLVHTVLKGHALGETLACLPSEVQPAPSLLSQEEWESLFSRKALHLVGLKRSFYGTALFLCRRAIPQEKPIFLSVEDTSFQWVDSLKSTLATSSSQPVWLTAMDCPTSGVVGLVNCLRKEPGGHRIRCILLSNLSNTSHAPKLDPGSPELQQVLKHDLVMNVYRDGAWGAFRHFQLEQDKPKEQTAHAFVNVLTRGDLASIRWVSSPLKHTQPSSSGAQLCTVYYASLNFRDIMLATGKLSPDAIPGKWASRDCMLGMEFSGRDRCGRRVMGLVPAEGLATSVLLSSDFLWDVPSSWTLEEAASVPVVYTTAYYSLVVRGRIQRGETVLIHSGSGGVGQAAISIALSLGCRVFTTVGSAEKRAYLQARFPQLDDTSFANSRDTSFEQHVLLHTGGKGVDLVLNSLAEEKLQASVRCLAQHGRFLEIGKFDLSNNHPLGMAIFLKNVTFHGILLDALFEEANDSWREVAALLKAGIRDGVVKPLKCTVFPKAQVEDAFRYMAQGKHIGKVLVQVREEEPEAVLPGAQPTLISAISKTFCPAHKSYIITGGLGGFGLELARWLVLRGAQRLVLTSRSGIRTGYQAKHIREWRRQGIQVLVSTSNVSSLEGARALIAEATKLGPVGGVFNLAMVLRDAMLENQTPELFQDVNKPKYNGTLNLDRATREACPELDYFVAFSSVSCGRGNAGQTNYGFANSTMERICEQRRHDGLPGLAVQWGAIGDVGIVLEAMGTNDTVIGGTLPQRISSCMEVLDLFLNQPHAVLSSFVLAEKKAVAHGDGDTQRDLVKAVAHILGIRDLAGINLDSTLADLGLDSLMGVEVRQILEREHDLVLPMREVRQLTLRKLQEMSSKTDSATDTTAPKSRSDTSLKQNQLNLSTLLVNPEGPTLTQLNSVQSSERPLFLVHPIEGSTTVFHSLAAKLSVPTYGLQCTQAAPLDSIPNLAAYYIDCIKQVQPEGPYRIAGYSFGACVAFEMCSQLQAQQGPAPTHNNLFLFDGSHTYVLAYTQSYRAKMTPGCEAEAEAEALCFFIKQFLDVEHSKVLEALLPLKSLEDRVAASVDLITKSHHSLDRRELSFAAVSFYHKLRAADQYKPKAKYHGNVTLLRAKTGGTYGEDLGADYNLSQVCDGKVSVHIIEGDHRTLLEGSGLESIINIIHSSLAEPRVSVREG

Structure (SMILES) | inhibition [1] | inhibition [2] | inhibition [3]
C/C=C/C/C=C/CCC(=O)[C@H]1O[C@H]1C(N)=O | Active | Dose-dependent effect | –
Oc1cc(Cl)ccc1Oc1ccc(Cl)cc1Cl | – | – | Dose-dependent effect
